Reference: patent publication US20240327488A1, “CONNEXIN-46 PEPTIDE MODULATOR” (UNIVERSIDAD DEL DESARROLLO, priority 2023, published 2024)

How the values were obtained:
Type in all cases: cell-based, human
HeLa Cx46-GFP cells = test: Tumor sphere formation on non-adherent surface
Excerpt: (B) Tumor spheres growing is a technique used to determine the cancer stem cells capacity. Hela cells transfected with GFP for a monolayer of cells when they a seeded in a non-adherent surface, and moreover they died after 14 days in culture. However, Hela cells transfected with Cx46GFP do form tumor spheres which survive at last for 14 days. […] (D) graphical comparison between the size of tumor spheres at day 14 under control conditions (outer line) and treated with the peptide (inner line). Plot show the quantification of the tumor sphere size between time 0 and day 14, both under control condition (upper line) and with the peptide (lower line).
Mimetic peptides of the Cx46 domains that would interact with c-Src, Akt or PI3k were designed, synthesized and evaluated for their ability to inhibit the formation of tumor spheres in vitro in Hela cells overexpressing or not Cx46. Briefly, the experiments were done with the following protocols.
Cell line cultures: The HeLa cell line was grown in Dulbecco's Modified Eagle Medium (DMEM) supplemented with 10% fetal bovine serum (FBS) and 1% penicillin 10,000 U/mL, streptomycin sulfate […] (P/S) at 37° C., 5% CO2 and 95% humidity. Every 2 weeks the presence of mycoplasma was analyzed, by means of staining with DAPI. Infected cells were treated with BioMyc-1 (100×) for two weeks.
Cell Transfection: Cells were transfected using Lipofectamine 2000 (Invitrogen). For this HeLa cell cultures were grown to reach 60% confluence. Cells are washed with serum-free DMEM twice and finally exposed to OptiMem™ (Invitrogen) plus 1 μg cDNA. The cDNA for GFP-linked human Cx46 was purchased from Promega. The plasmid also has a resistance to G418, which is an antibiotic that serves for the selection of cells that stably express Cx46-GFP. Cx46 expression was monitored by Western blot and immunofluorescence analysis.
However, Hela cells transfected with Cx46-GFP form large tumor spheres that remain alive for at least 14 days (FIG. 2B; Annex 1). […]

[1] = test system: Tumor spheres formed by Hela cells transfected with Cx46GFP; test: Cell viability of tumor spheres (7-AAD uptake)
Procedure: Tumor spheres formed by Hela cells transfected with Cx46GFP were grown for 14 days. […] TAT-Cx46-Src was added every 3 days (every time that culture media was replaced). At day 14th, 10 mM 7-AAD was added to the extracellular media.

[2] = test system: Akt phosphorylation in S473; test: Western blot of Akt phosphorylation at S473
Procedure: (A) Representative Western blot showing, the levels of phosphorylation at S473 (pAKT), total AKT (AKT) and loading control (actin). Different concentrations of TAT-Cx46-Src were tested, ranging between […]. (B) Plot showing the relative levels of pAKT with respect to total AKT at different concentrations of TAT-Cx46-Src. (n=3).
Western blots: Cells were washed three times with phosphate buffered saline
(PBS) pH: 7.4 and then lysed with RIPA buffer (150 mM NaCl, 20 mM Tris pH: 7.4; 0.5% Sodium Desoxycholate, 0.1% Sodium Dodecyl Sulfate (SDS), 1% Nonidet P-40 and a protease inhibitor cocktail tablet). Proteins were quantified using the Qubit™ protein Assay Kit in a Qubit™ Fluorometer following the manufacturer's instructions (ThermoFisher). Subsequently, Laemli buffer (4×) (62.5 mM Tris pH 6.8; 25% glycerol, 2% SDS, 0.01% bromophenol blue and 5% β-mercaptoethanol) was added to the cell lysate and was heated at 95° C. for 3 min, in a thermoblock. About 50 μg of proteins were loaded into each well of a 10% polyacrylamide gel under denaturing conditions (SDS-PAGE). Then the proteins were transferred to a polyvinylidene difluoride (PVDF) membrane by wet transfer for 2 h at 100 V in Tris-Glycine 20% methanol buffer. The membranes were blocked with 5% skimmed milk in Buffer Tris and 0.05% Tween 20 (T-TBS) for 1 h at room temperature under shaking. […]

Substance: TAT-Cx46-Src: Mimetic peptide of the Cx46 404-410 C-terminal segment (MHQPPLP) fused with the cell-penetrating TAT peptide; blocks the Cx46/c-Src interaction (GRKKRRQRRRPQMHQPPLP)
- decrease of the size of tumor spheres (HeLa Cx46-GFP cells; 100 μM, 10 days of treatment, HeLa Cx46-GFP cells): about 43%
- tumor sphere size (HeLa Cx46-GFP cells; 100 mM added to the extracellular media every 3 days, Hela Cx46GFP, up to day 14 (FIG. 2C)): reduced tumor sphere size
- inhibition of the cancer stem cells (CSC) functional phenotype (HeLa Cx46-GFP cells; Hela cells (FIGS. 2C and D)): strong inhibition
- uptake of 7-AAD dye ([1]; day 14, 10 mM 7-AAD in extracellular media, 100 mM peptide every 3 days, n=3): shown uptake of this Dye
- death of cells in tumor spheres (cell viability studies) ([1]; treatment with 100 μM, HeLa Cx46-GFP tumor spheres): promotes the death of cells in the center of tumor spheres
- cell death of Hela cells Cx46GFP ([1]; tumor spheres grown 14 days, 100 mM added every 3 days, n=3 (FIG. 4)): increase cell death
- Akt phosphorylation levels in S473 ([2]; 100 μM, 24-h treatment, HeLa Cx46-GFP cells): strongly decreased
- Akt phosphorylation in S473 (pAKT relative to total AKT) ([2]; concentrations ranging between 0-100 mM, n=3 (FIG. 3)): decreased Akt phosphorylation
